Results published in PMC12339163, “Combining Plant Bioactives With Antibiotics for Enhanced Antibiofilm Activity Against Uropathogenic Staphylococcus spp. and Cytotoxicity Evaluation” (Advances in Pharmacological and Pharmaceutical Sciences, 2025).
Converted amounts (≈) assume the structure as drawn. Like-named read-outs stand apart in the source and are kept apart here.

Tests used:
[1] = test system: S. aureus; assay: MIC and MBC, broth microdilution; assay type: cell-based, Staphylococcus aureus; settings: geometric mean, S. aureus (n = 3)
Experimental: (§1) Seven clinical isolates of Staphylococcus spp. including 2 S. aureus, 3 S. saprophyticus, and 2 S. epidermidis were used. They were isolated from urine samples in our previous study. Two reference strains (S. aureus ATCC1026 and S. epidermidis ATCC35984) obtained from the American Type Culture Collection were also included. They were kept in the mixture of glycerol and Mueller Hinton Broth (MHB) (1:1) at −20°C, and the activation was achieved using the streak technique on Mueller Hinton agar (MHA) medium.
(§2) The MICs of ATBs and NPs were determined by the broth microdilution method as previously described. NPs and ATBs were, respectively, prepared at 4096 µg/mL and 512 µg/mL and serially diluted twofold with MHB in a 96-well microplate at a volume of 100 µL. Then, the wells were filled with 100 µL of inoculum (1.5 × 10^6 CFU/mL) to give final concentrations ranging from 1024 µg/mL to 0.5 µg/mL and 128 µg/mL to 0.062 µg/mL of NPs and ATBs, respectively. The microplates were incubated for 24 h at 37°C. Wells containing only bacterial inoculum were used as the negative control. After incubation, a volume of 40 µL of INT solution (0.2 mg/mL) was added to each well, and the microplate was incubated at 37°C for 30 min. Viable bacteria cells change the yellow dye of INT to a pink color. The MIC was considered as the lowest concentration of the sample at which there was no change in the coloration of the medium, corresponding to the complete inhibition of microbial growth.
(§3) All tests were performed in triplicate.

[2] = test system: S. saprophyticus; assay: MIC and MBC, broth microdilution; assay type: cell-based, Staphylococcus saprophyticus; settings: geometric mean, S. saprophyticus (n = 3)
Experimental: as §1, §2, §3

[3] = test system: S. saprophyticus biofilm; assay: Biofilm eradication assay (MBEC, MTT); assay type: cell-based, Staphylococcus saprophyticus; settings: geometric mean, S. saprophyticus (n = 3); for minimal effective concentration: Staphylococcus saprophyticus, 24 h
Experimental: The determination of the biofilm eradication potential of NPs and ATBs was performed as previously described. Briefly, 100 µL of bacterial inoculum (1.5 × 10^6 CFU/mL) and 100 µL of MHB + 1% glucose were introduced into the microplate, incubated at 37°C for 24 h, and the microplate was gently emptied and washed three times with PBS. Then, 200 µL of ATBs or NPs at respective concentrations ranging from 8 to 1024 µg/mL and from 16 to 2048 µg/mL were incubated at 37°C for 24 h. Once incubation was completed, the microplate was processed as described above, and the percentage of biofilm eradication was calculated using the formula below. The minimal biofilm eradicating concentration (MBEC) was recorded as the lowest concentration of the test sample that reduces 100% of biofilm:(2) % biofilm eradication=ODcontrol−ODblank−ODtest−ODblank/ODcontrol−ODblank×100.

[4] = test system: planktonic cells of Staphylococcus aureus; assay: Checkerboard combination assay, planktonic cells; assay type: cell-based; settings: S. aureus, mean; for MIC: Staphylococcus aureus
Experimental: (§4) The checkerboard assay, as previously described, was used for the determination of the fractional inhibitory concentration index (FICI). Briefly, 50 µL of MHB was distributed into each well of a 96-well microplate. ATBs were serially diluted along the abscissa, and NPs were serially diluted along the ordinate. Then, 100 µL of bacterial inoculum (1.5 × 10^6 CFU/mL) was added to each well and incubated at 37°C for 24 h. The final concentration ranged from 0.125 to 128 µg/mL for ATBs and 4–512 µg/mL for NPs. After incubation, a volume of 40 µL of INT solution (0.2 mg/mL) was added to each well, and the microplate was incubated at 37°C for 30 min. The wells containing bacterial inoculum and MHB were used as a positive control, while wells containing only MHB + 1% glucose were used as a negative control and used as a blank. Viable bacteria cells change the yellow dye of INT to a pink color. The MICs were considered to be the lowest NP concentrations that prevented the color change medium. Subsequently, the FICI was calculated according to the formula FICI = (MIC of the ATBs in combination/MIC of the ATBs alone) + (MIC of a natural substance in combination/MIC of the natural substance alone). FICI values were interpreted as follows: synergy when FICI ≤ 0.5; additive when 0.5 < FICI ≤ 1; indifference when 1 < FICI ≤ 4; and antagonism when FICI > 4.

[5] = test system: planktonic cells of Staphylococcus saprophyticus; assay: Checkerboard combination assay, planktonic cells; assay type: cell-based; settings: S. saprophyticus, mean; for MIC: Staphylococcus saprophyticus
Experimental: as §4

[6] = test system: Raw 264.7 macrophages; assay: Cytotoxicity, MTT assay; assay type: cell-based; settings: Raw 264.7, MTT
Experimental: (§5) Two cell lines, including Raw 264.7 macrophages and the urinary epithelial cell line UROtsa obtained from the American Type Culture Collection (Rockville, MD, USA), were used. They were cultured in Dulbecco's modified Eagle's medium (DMEM), which was supplemented with 10% fetal bovine serum (FBS) and 1% penicillin, streptomycin, and fungizone (PSF). They were then grown at 37°C in a humidified environment containing 5% CO2.
(§6) The cytotoxicity of the selected synergistic combinations, as well as the individual constituents of combinations, against the abovementioned cell lines was performed by the MTT assay as previously described. Briefly, cells from each line were harvested in the logarithmic phase using trypsin (0.05% trypsin, 0.02% EDTA in PBS). Cell suspension was diluted with an appropriate growth medium to obtain a cell density of 10^4 cells/well. A 100 µL aliquot of each suspension was seeded into 96-well cell culture plates and incubated at 37°C in an atmosphere of 5% CO2 and 95% relative humidity. After 24 h of incubation, 100 µL of samples (ATBs and NPs) at concentrations varying from 0.01, 0.1, 1, 10, 100, and 1000, as well as the synergistic combinations (C1 to C5), was added to the wells containing the cells. Doxorubicin was used as a positive control. Appropriate controls with an equivalent concentration of DMSO were also included. Plates were incubated for 48 h, then the medium in each well was aspirated, and MTT solution (2 mg/mL in PBS) was diluted 1:10 with fresh medium and added to each well, and the plates were further incubated at 37°C for 4 h. Absorbance was measured on a BioTek microplate reader at 570 nm. The percentage of cell viability was calculated by comparing treated and untreated cells using the equation [39]:(3) cell viability %=ODtest/ODcontrol×100.
(§7) Then, the IC50 values of the samples having shown at least 50% inhibition were calculated by plotting the percentage of inhibition against the concentrations.

[7] = test system: UROtsa urinary epithelial cells; assay: Cytotoxicity, MTT assay; assay type: cell-based; settings: 48 h
Experimental: as §5, §6, §7

[8] = Staphylococcus aureus, antibiotics, read-out: MBC
[9] = Staphylococcus aureus, read-out: MIC
[10] = Staphylococcus saprophyticus, antibiotics, read-out: MBC
[11] = Staphylococcus saprophyticus, read-out: MIC
[12] = Mus musculus, RAW264.7, 48 h, read-out: IC50
[13] = Epithelial cell, read-out: IC50
[14] = Staphylococcus aureus, natural products, read-out: MBC
[15] = Staphylococcus saprophyticus, natural products, read-out: MBC

Structure (SMILES) | MIC [1, 9] [µg/mL] | MIC [2, 11] [µg/mL] | MIC ([4]; 24 h, read-out: MIC alone, ATB) [µg/mL] | MIC ([4]; read-out: MIC alone, ATB) [µg/mL] | MIC ([5]; 24 h, read-out: MIC alone, ATB) [µg/mL] | MIC ([5]; read-out: MIC alone, ATB) [µg/mL] | MBC [1, 8] [µg/mL] | MBC [2, 10] [µg/mL] | minimal effective concentration [3] [µg/mL] | IC50 ([6]; 48 h) | IC50 [7] | IC50 [7, 13] [µg/mL] | MBC [1, 14] [µg/mL] | MBC [2, 15] [µg/mL] | MIC ([4]; 24 h, read-out: MIC alone, NPs) [µg/mL] | MIC ([4]; read-out: MIC alone, NPs) [µg/mL] | MIC ([5]; 24 h, read-out: MIC alone, NPs) [µg/mL] | MIC ([5]; read-out: MIC alone, NPs) [µg/mL] | also measured
NCC[C@H](O)C(=O)N[C@@H]1C[C@H](N)[C@@H](O[C@H]2O[C@H](CN)[C@@H](O)[C@H](O)[C@H]2O)[C@H](O)[C@H]1O[C@H]1O[C@H](CO)[C@@H](O)[C@H](N)[C@H]1O [Amikacin, amikacin] | 4.33 (≈ 7.39 µM) | 22 (≈ 37.6 µM) | 4.33 | 4.33 | 22 | 22 | > 128 | > 128 | 13.3 | — (IC50 > 1000 µg/mL) | — (IC50 > 1000 µg/mL) | > 1000 |  |  |  |  |  |  | IC50 [6, 12]: > 1000 µg/mL
C=CC1=C(C(=O)O)N2C(=O)[C@@H](NC(=O)/C(=N\OCC(=O)O)c3csc(N)n3)[C@H]2SC1 [Cefixime, cefixime] | 213 (≈ 470 µM) | 192 (≈ 423 µM) | 213 | 213 | 192 | 192 | > 128 | > 128 | 48 | 473.83 µg/mL | — (IC50 > 1000 µg/mL) | > 1000 |  |  |  |  |  |  | 
NC[C@H]1O[C@H](O[C@H]2[C@H](O)[C@@H](O[C@H]3O[C@H](CO)[C@@H](O)[C@H](N)[C@H]3O)[C@H](N)C[C@@H]2N)[C@H](O)[C@@H](O)[C@@H]1O [Kanamycin, kanamycin] |  |  |  |  |  |  |  |  |  | — (IC50 > 1000 µg/mL) | — (IC50 > 1000 µg/mL) |  |  |  |  |  |  |  | MBC ([1]; antibiotics): 69.33 µg/mL (≈ 143 µM); MIC [1]: 22.66 µg/mL (≈ 46.8 µM); MBC ([2]; antibiotics): — (> 128 µg/mL for ATBs); MIC [2]: 14 µg/mL (≈ 28.9 µM); MBEC [3]: 10.66 µg/mL; MIC alone, ATB [4]: 22.66 µg/mL; MIC alone, ATB [5]: 14 µg/mL
CC1=CC(=O)c2c(O)cccc2C1=O [Plumbagin, plumbagin] | 6 (≈ 31.9 µM) | 8.66 (≈ 46 µM) |  |  |  |  |  |  | 10.7 |  |  |  | > 1020 | > 1020 | 4.66 | 4.66 | 8.66 | 8.33 | 
CC[C@H]1OC(=O)[C@H](C)[C@@H](O[C@H]2C[C@@](C)(OC)[C@@H](O)[C@H](C)O2)[C@H](C)[C@@H](O[C@@H]2O[C@H](C)C[C@H](N(C)C)[C@H]2O)[C@](C)(O)C[C@@H](C)C(=O)[C@H](C)[C@@H](O)[C@]1(C)O [Erythromycin, erythromycin] | 108 (≈ 147 µM) | 4.66 (≈ 6.35 µM) | 108 | 108 | 4.66 | 4.66 | > 128 | > 128 | 29.3 |  |  |  |  |  |  |  |  |  | 
O=c1c(O)c(-c2ccc(O)c(O)c2)oc2cc(O)cc(O)c12 [Quercetin, quercetin] | 341 (≈ 1130 µM) | 341 (≈ 1130 µM) |  |  |  |  |  |  | 171 |  |  |  | > 1020 | > 1020 | 427 | 341 | 427 | 427 | MIC alone, NPs ([5]; listed as Que): 341.33 µg/mL

Continued, in another order:

MIC [1, 9] [µg/mL] | MIC [2, 11] [µg/mL] | MIC ([4]; 24 h, read-out: MIC alone, ATB) [µg/mL] | MIC ([4]; read-out: MIC alone, ATB) [µg/mL] | MIC ([5]; 24 h, read-out: MIC alone, ATB) [µg/mL] | MIC ([5]; read-out: MIC alone, ATB) [µg/mL] | Structure (SMILES) | MBC [1, 8] [µg/mL] | MBC [2, 10] [µg/mL] | minimal effective concentration [3] [µg/mL] | IC50 ([6]; 48 h) | IC50 [7] | IC50 [7, 13] [µg/mL] | MBC [1, 14] [µg/mL] | MBC [2, 15] [µg/mL] | MIC ([4]; 24 h, read-out: MIC alone, NPs) [µg/mL] | MIC ([4]; read-out: MIC alone, NPs) [µg/mL] | MIC ([5]; 24 h, read-out: MIC alone, NPs) [µg/mL] | MIC ([5]; read-out: MIC alone, NPs) [µg/mL] | also measured
42.7 (≈ 93.9 µM) | 64.7 (≈ 142 µM) | 42.7 | 42.7 | 64.7 | 64.7 | Cc1nnc(SCC2=C(C(=O)O)N3C(=O)[C@@H](NC(=O)Cn4cnnn4)[C@H]3SC2)s1 [Cefazolin, cefazolin] | > 128 | > 128 | 10.7 | 504.26 µg/mL | — (IC50 > 1000 µg/mL) | > 1000 |  |  |  |  |  |  | IC50 [6, 12]: > 1000 µg/mL
6.16 (≈ 13.9 µM) | 32.2 (≈ 72.4 µM) | 6.16 | 6.16 | 32.2 | 32.2 | C[C@H]1c2cccc(O)c2C(=O)C2=C(O)[C@]3(O)C(=O)C(C(N)=O)=C(O)[C@@H](N(C)C)[C@@H]3[C@@H](O)[C@@H]21 [Doxycycline, doxycycline] | 32.7 (≈ 73.5 µM) | > 128 | 9.33 |  |  |  |  |  |  |  |  |  | 
427 (≈ 2510 µM) | 427 (≈ 2510 µM) |  |  |  |  | O=C(O)c1cc(O)c(O)c(O)c1 [Gallic acid, 3,4,5-trihydroxybenzoic acid] |  |  | 299 |  |  |  | > 1020 | > 1020 | 427 | 427 | 427 | 427 | 
139 | 149 |  |  |  |  | COc1ccc2cc3[n+](cc2c1OC)CCc1cc2c(cc1-3)OCO2 [Berberine, berberine] |  |  | 171 |  |  |  | > 1020 | > 1020 | 139 | 139 | 213 | 213 | MIC alone, NPs ([5]; listed as Ber): 298.66 µg/mL
